In this test the test system is B6C3F1 mice, ip Sarcoma M5076, median survival T/C. The test is described as follows: NCI In Vivo Anticancer Drug Screen. Data for tumor model Sarcoma M5076 (intraperitoneal) in B6C3F1 mice. The conditions noted are these: endpoint: median survival time, higher = longer survival. In short, it runs like this:
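Mice carrying the transplanted tumour received compound treatment. Survival was recorded, and each value is the treated-group measurement divided by that of the vehicle-dosed control group.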

[1] abbreviates: dose: 25.0 mg/kg/injection, schedule: Q04DX004 (ip), vehicle: Klucel (hydroxypropylcellulose) (HPC).
Where [2] appears, read: dose: 50.0 mg/kg/injection, schedule: Q04DX004 (ip), vehicle: Klucel (hydroxypropylcellulose) (HPC).
The mark [3] stands for this setting: dose: 100.0 mg/kg/injection, schedule: Q04DX004 (ip), vehicle: Klucel (hydroxypropylcellulose) (HPC).
Where [4] appears, read: dose: 200.0 mg/kg/injection, schedule: Q04DX004 (ip), vehicle: Klucel (hydroxypropylcellulose) (HPC).
[5] abbreviates: dose: 50.0 mg/kg/injection, schedule: Q04DX004 (ip), vehicle: suspension in saline.
[6] abbreviates: dose: 100.0 mg/kg/injection, schedule: Q04DX004 (ip), vehicle: suspension in saline.
Setting [7] is: dose: 200.0 mg/kg/injection, schedule: Q04DX004 (ip), vehicle: suspension in saline.
Setting [8] is: dose: 400.0 mg/kg/injection, schedule: Q04DX004 (ip), vehicle: suspension in saline.
Setting [9] is: dose: 50.0 mg/kg/injection, schedule: Q04DX004 (ip), vehicle: saline with Tween-80.
Setting [10] is: dose: 100.0 mg/kg/injection, schedule: Q04DX004 (ip), vehicle: saline with Tween-80.
Where [11] appears, read: dose: 200.0 mg/kg/injection, schedule: Q04DX004 (ip), vehicle: saline with Tween-80.
The mark [12] stands for this setting: dose: 400.0 mg/kg/injection, schedule: Q04DX004 (ip), vehicle: saline with Tween-80.
The mark [13] stands for this setting: dose: 25.0 mg/kg/injection, schedule: Q04DX004 (ip), vehicle: saline with Tween-80.
The mark [14] stands for this setting: dose: 25.0 mg/kg/injection, schedule: Q04DX004 (ip), vehicle: suspension in saline.
The mark [15] stands for this setting: dose: 50.0 mg/kg/injection, schedule: Q04DX004 (ip), vehicle: saline.
The mark [16] stands for this setting: dose: 100.0 mg/kg/injection, schedule: Q04DX004 (ip), vehicle: saline.
Setting [17] is: dose: 400.0 mg/kg/injection, schedule: Q04DX004 (ip), vehicle: Klucel (hydroxypropylcellulose) (HPC).

Values joined by “and” are separate entries in the source; they are usually repeats but may differ in a detail not shown here. Identical values can stand only once. Toxic doses and inconclusive results are not listed.

Take `O=c1[nH]cnc2c1cnn2CN1CCOCC1`: the T/C runs as follows: under setting [1], 99 % of control; under setting [2], 101 % of control; under setting [3], 98 % of control; under setting [4], 112 % of control.
Consider `NC(=S)N/N=C/c1ncccc1O`, for which the T/C under setting [5] was 103 % of control, the T/C under setting [6] is 101 % of control, the T/C under setting [7] is 101 % of control and the T/C under setting [8] was 102 % of control.
Regarding `CC1=CC(C)(C)N=C2SC(COc3ccccc3)=NN12`, the T/C was 104 % of control under setting [9], 96 % of control under setting [10], 93 % of control under setting [11] and 99 % of control under setting [12].
For `CN(C)CCNc1ccc(CO)c2sc3ccc(O)cc3c(=O)c12`, the T/C under setting [9] was 155 % of control, the T/C under setting [10] is 119 % of control and the T/C under setting [12] is 158 % of control.
Turning to `NCCSC(C[N+](=O)[O-])c1ccccc1Cl` (stereo not given), the T/C runs as follows: (dose: 12.5 mg/kg/injection, schedule: Q04DX004 (ip), vehicle: saline with Tween-80) 90 % of control and 100 % of control; under setting [13], 92 % of control and 105 % of control; under setting [9], 95 % of control and 98 % of control; under setting [10], 109 % of control.
Consider `C/C=C(\C)C(=O)OC1C(C)=C2C(C1OC(=O)CCCCC)C(C)(OC(C)=O)CC(OC(=O)CCC)C1(O)C2OC(=O)C1(C)O` (stereo not given), for which the T/C reads like this: (dose: 1.0 mg/kg/injection, schedule: Q04DX004 (ip), vehicle: Klucel (hydroxypropylcellulose) (HPC)) 97 % of control and 101 % of control; (dose: 2.0 mg/kg/injection, schedule: Q04DX004 (ip), vehicle: Klucel (hydroxypropylcellulose) (HPC)) 92 % of control and 101 % of control.
On to `O=C(O)CC1C(=O)OC2C3COC(=O)c4cc(O)c(O)c(O)c4-c4c(cc(O)c(O)c4O)C(=O)OC2C(OC(=O)c2cc(O)c(O)c4c2C1C(O)C(=O)O4)C(OC(=O)c1cc(O)c(O)c(O)c1)O3` (stereo not given), for which the T/C is, setting by setting: (dose: 6.25 mg/kg/injection, schedule: Q04DX004 (ip), vehicle: saline) 89 % of control; (dose: 12.5 mg/kg/injection, schedule: Q04DX004 (ip), vehicle: saline) 96 % of control; (dose: 25.0 mg/kg/injection, schedule: Q04DX004 (ip), vehicle: saline) 97 % of control; under setting [14], 96 % of control; under setting [15], 104 % of control; under setting [5], 97 % of control. Further, the T/C runs as follows: under setting [16], 96 % of control; under setting [6], 100 % of control.
Turning to `COc1ccc([N+](=O)[O-])cc1NC(=O)C1C(=O)C(=O)N(c2cc([N+](=O)[O-])ccc2OC)C1=O` (stereo not given), the T/C is 100 % of control under setting [2], 107 % of control under setting [3] and 100 % of control under setting [4].
Turning to `COC1=C(OC)C(=O)C(C(=O)CCCCC(=O)O)=C(C)C1=O`, the T/C runs as follows: under setting [13], 100 % of control; under setting [9], 98 % of control and 105 % of control; under setting [10], 92 % of control and 97 % of control; under setting [11], 91 % of control; under setting [12], 91 % of control and 97 % of control; (dose: 800.0 mg/kg/injection, schedule: Q04DX004 (ip), vehicle: saline with Tween-80) 95 % of control.
Turning to `COc1cc2c(cc1OC)-c1c3c(cc4c1[C@@H](C2)N(C)CC4)OCO3`, the T/C by setting is: (dose: 12.5 mg/kg/injection, schedule: Q04DX004 (ip), vehicle: distilled water + Tween-80) 101 % of control; (dose: 25.0 mg/kg/injection, schedule: Q04DX004 (ip), vehicle: distilled water + Tween-80) 100 % of control; (dose: 50.0 mg/kg/injection, schedule: Q04DX004 (ip), vehicle: distilled water + Tween-80) 100 % of control; (dose: 100.0 mg/kg/injection, schedule: Q04DX004 (ip), vehicle: distilled water + Tween-80) 95 % of control.
In the case of `CC1CCC(NC(=O)N(CCCl)N=O)CC1` (stereo not given), the T/C was 108 % of control (dose: 3.0 mg/kg/injection, schedule: Q01DX004 (ip), vehicle: Klucel (hydroxypropylcellulose) (HPC)); 104 % of control (dose: 6.0 mg/kg/injection, schedule: Q01DX004 (ip), vehicle: Klucel (hydroxypropylcellulose) (HPC)); 108 % of control (dose: 12.0 mg/kg/injection, schedule: Q01DX004 (ip), vehicle: Klucel (hydroxypropylcellulose) (HPC)); 254 % of control (dose: 48.0 mg/kg/injection, schedule: Q04DX004 (ip), vehicle: Klucel (hydroxypropylcellulose) (HPC)).
For the compound `Clc1cc2c(nn1)Nc1ccccc1S2`, the T/C is 100 % of control under setting [9], 95 % of control under setting [10] and 95 % of control under setting [11].
Regarding `CN(C)C(=O)Nc1ccc(Cl)cc1`, the T/C was 107 % of control under setting [14]; 94 % of control and 105 % of control and 113 % of control under setting [5]; 91 % of control and 102 % of control and 104 % of control under setting [6]; 92 % of control and 97 % of control and 113 % of control under setting [7]; 95 % of control and 98 % of control and 99 % of control under setting [8].
Consider `CN(C)[C@@H]1C(=O)C(C(=O)NCN2CCN(C(=N)N=C(N)N)CC2)=C(O)[C@@]2(O)C(=O)C3=C(O)c4c(O)cccc4[C@@](C)(O)[C@H]3C[C@@H]12`, for which the T/C (dose: 0.31 mg/kg/injection, schedule: Q04DX004 (ip), vehicle: saline) was 105 % of control; the T/C (dose: 0.62 mg/kg/injection, schedule: Q04DX004 (ip), vehicle: saline) was 102 % of control; the T/C (dose: 1.25 mg/kg/injection, schedule: Q04DX004 (ip), vehicle: saline) is 102 % of control; the T/C (dose: 1.8 mg/kg/injection, schedule: Q04DX004 (ip), vehicle: suspension in saline) was 94 % of control; the T/C (dose: 2.5 mg/kg/injection, schedule: Q04DX004 (ip), vehicle: saline) is 95 % of control; the T/C (dose: 3.0 mg/kg/injection, schedule: Q04DX004 (ip), vehicle: suspension in saline) was 90 % of control. Further, the T/C is 106 % of control (dose: 5.0 mg/kg/injection, schedule: Q04DX004 (ip), vehicle: saline); 93 % of control (dose: 5.0 mg/kg/injection, schedule: Q04DX004 (ip), vehicle: suspension in saline); 91 % of control (dose: 8.33 mg/kg/injection, schedule: Q04DX004 (ip), vehicle: suspension in saline); 94 % of control (dose: 13.88 mg/kg/injection, schedule: Q04DX004 (ip), vehicle: suspension in saline).
Take `CCCS(=N)(=O)CCC(N)C(=O)O` (stereo not given): the T/C is, setting by setting: under setting [15], 103 % of control; under setting [16], 105 % of control; (dose: 200.0 mg/kg/injection, schedule: Q04DX004 (ip), vehicle: saline) 102 % of control; (dose: 400.0 mg/kg/injection, schedule: Q04DX004 (ip), vehicle: saline) 102 % of control; (dose: 800.0 mg/kg/injection, schedule: Q04DX004 (ip), vehicle: saline) 105 % of control.
Consider `CN1C2C=CC(=O)C1C1C(=O)N(c3ccccc3)C(=O)C12` (stereo not given), for which the T/C is 102 % of control under setting [2], 96 % of control under setting [3] and 118 % of control under setting [4].
Take `c1ccc([Te][Te]c2ccccc2)cc1`: the T/C is 106 % of control (dose: 18.75 mg/kg/injection, schedule: Q04DX004 (ip), vehicle: saline with Tween-80); 100 % of control (dose: 37.5 mg/kg/injection, schedule: Q04DX004 (ip), vehicle: saline with Tween-80); 98 % of control (dose: 75.0 mg/kg/injection, schedule: Q04DX004 (ip), vehicle: saline with Tween-80).
As for `COc1ccc(CCN2C(=O)C(=O)N(C)C2=O)cc1OC`, the T/C is, setting by setting: under setting [1], 89 % of control; under setting [2], 99 % of control; under setting [17], 92 % of control.
Consider `CCC1OCC(C(Cl)CCl)O1` (stereo not given), for which the T/C is 100 % of control under setting [9], 97 % of control under setting [10] and 93 % of control under setting [11].
`O=CC(O)C(O)C(O)C(O)CO` (stereo not given): the T/C (dose: 75.0 mg/kg/injection, schedule: Q04DX004 (ip), vehicle: saline) is 93 % of control; the T/C (dose: 150.0 mg/kg/injection, schedule: Q04DX004 (ip), vehicle: saline) was 96 % of control; the T/C (dose: 300.0 mg/kg/injection, schedule: Q04DX004 (ip), vehicle: saline) was 96 % of control; the T/C (dose: 600.0 mg/kg/injection, schedule: Q04DX004 (ip), vehicle: saline) was 98 % of control; the T/C (dose: 1200.0 mg/kg/injection, schedule: Q04DX004 (ip), vehicle: saline) is 93 % of control.
Take `COc1ccccc1C1C(C#N)C(=O)NC(=O)C1C#N` (stereo not given): the T/C is, setting by setting: under setting [2], 100 % of control; under setting [3], 100 % of control; under setting [4], 95 % of control; under setting [17], 102 % of control.

These data come from PubChem BioAssay AID292 (DTP/NCI, 2004).
